The values that follow come from ChEMBL document CHEMBL1828607, “N-Heteroaryl glycinamides and glycinamines as potent NPY5 antagonists” (Bioorg Med Chem Lett, 2011).

The structures appear in SMILES notation. ≈ marks a conversion by molar mass, not a printed value.

The nature of data set [1]: physchem. The settings on record: octanol/water.
Description: Lipophilicity, log D of the compound
A short description of data set [2]: in vivo. As to conditions: Sprague-Dawley, rat, plasma, po, 10 mg/kg.
Description: Drug level in femoral artery cannulated Sprague-Dawley rat plasma at 10 mg/kg, po after 1 hr by LC/MS/MS method
Data set [3] in a line: physchem. As to conditions: buffer, pH 7.4.
Description: Solubility of the compound at pH 7.4
Data set [4] in a line: in vivo. The settings on record: Sprague-Dawley, rat, brain, po, 10 mg/kg.
Description: Drug level in femoral artery cannulated Sprague-Dawley rat brain at 10 mg/kg, po after 1 hr by LC/MS/MS method
Data set [5] can be described thus: in vivo. As to conditions: Sprague-Dawley, rat, brain/plasma, po, 10 mg/kg.
Description: Ratio of drug level in brain to plasma in femoral artery cannulated Sprague-Dawley rat at 10 mg/kg, po after 1 hr by LC/MS/MS method

Usually logD stands for the decadic logarithm of the distribution of all forms, ionised or not, between an organic phase and buffer at a given pH. Low readings indicate lower lipophilicity, high ones higher lipophilicity. The term solubility denotes the concentration that dissolves in the medium under given conditions. High values mean a readily soluble substance, low ones a poorly soluble substance. `CN(C)S(=O)(=O)NC[C@H]1CC[C@H](NC(=O)CN2C(=O)CC(C)(C)Sc3ccccc32)CC1` returned a logD in “physchem [1]” of 2.4. The compound also showed a concentration at 1 h in “in vivo [2]” of 1.5 nM. In the data set “physchem [3]”, this compound had a solubility of 440 µg/mL (≈ 912 µM).

Usually Kp stands for tissue or fluid exposure divided by exposure in the circulation. In the case of `CC(C)S(=O)(=O)NC[C@H]1CC[C@H](NC(=O)CN2C(=O)COc3cc(Cl)ccc32)CC1`, the concentration at 1 h came to 33 nM in the data set “in vivo [4]” and 481 nM in the data set “in vivo [2]”. For the same compound, the Kp at 1 h in the data set “in vivo [5]” turned out to be 0.07.

As for `CC(C)S(=O)(=O)NC[C@H]1CC[C@H](NC(=O)CN2CCOc3cc(Cl)ccc32)CC1`, the concentration at 1 h in the data set “in vivo [4]” came out at 43 nM; in the data set “in vivo [2]”, 430 nM. Also, in the data set “in vivo [5]”, the Kp at 1 h was found to be 0.1.

In the case of `CC(C)S(=O)(=O)NC[C@H]1CC[C@H](NC(=O)CN2C(=O)CCc3cc(Cl)ccc32)CC1`, the concentration at 1 h in “in vivo [4]” stood at 16 nM; in the data set “in vivo [2]” it was 879 nM. The compound further had a Kp at 1 h in “in vivo [5]” of 0.02.
